# Measurements reported in patent EP0440298A1, “Topical preparations for treating human nails” (BROCADES PHARMA B.V., priority 1990, dated 1991).
# What was measured:
# [1] = format: in vitro ADME, human
# Procedure: (§1) On human nail discs of 6 mm diameter were mounted 1.5 cm pieces of tubing of 4 mm outer and 3 mm inner diameter, in each of which was poured 30 µl of one of the above lotions (n = 2 x 3). The free (ventral) surfaces of the nail discs were kept moist on a pad soaked in saline.
# (§2) After 48 hours of incubation at 30°C and the discs were sectioned (50 µm) parallel to their dorsal surface, using a freeze-microtome. Radioactivity was measured in the separate sections, after which the amount of penetrated oxiconazole was calculated.
# To lotions consisting of 50% v/v of ethanol in distilled water were added 0.1 M of NAC (pH 2.3), of 1,4-dithiothreitol (DTT, not claimed, pH 4.5) or of ammonium thioglycolate (ATG, not claimed, pH 9.0), as in Example 10. To all three solutions was also added 1% w/v of oxiconazole, containing a known amount (1 µCi per 30 µl) of radioactive ¹⁴C oxiconazole. These lotions were tested in an experimental set-up as in Examples 6 and 9.
# [2] = Comparison of sulfhydryl compounds: weight increase of nail clippings during immersion in a lotion (Example 10); design: species or system human; details: 0.1 M in lotion of 50% v/v ethanol in distilled water
# Procedure: (§3) Human nail clippings were immersed in the test and control lotions at ambient temperature and their weight increase expressed as % of their original weight.
# The effects of 0.1 M of each of NAC (pH 2.3), 1,4-dithiothreitol (DTT, not claimed, pH 4.5) and ammonium thioglycolate (ATG, not claimed, pH 9.0), in a lotion consisting of 50% v/v ethanol in distilled water were compared, as in Example 1. The immersion period of the human nail clippings in the control and test lotions was 72 hours.
# [3] = Weight increase of nail clippings during immersion in a lotion (Example 1); design: species or system Human
# Procedure: Solutions (lotions) were prepared, containing (v/v) 40% of distilled water, 40% of methyl ethyl ketone and 20% of isopropyl alcohol.
# To these lotions were added salicylic acid, NAC, 1,4-dithiothreitol or mercaptoethylamine, in w/v concentrations as further specified in Table 1.
# To distilled water were added glutathione, mercaptoethanol or urea, in w/v concentrations as further specified in Table 1.
# as §3
# [4] = Effect of NAC-containing lotion on the penetration of 14C oxiconazole in nail discs (Example 6); format: in vitro ADME, human; details: 20% w/v NAC lotion with 1% w/v oxiconazole; 48 hours at 30°C
# Procedure: A 20% w/v NAC-containing lotion and a control lotion were prepared as in Example 1.
# To both these preparations was added 1% w/v of oxiconazole, containing a known amount (1 µCi per 30 µl) of radioactive ¹⁴C oxiconazole.
# as §1, §2
# [5] = Weight increase of nail clippings on dorsal application of a film-forming lotion (Example 4); design: species or system Human; details: film-forming lotion with 20 parts of NAC painted on dorsal surface twice a day; after 3 days (no further change up to 6 days)
# Procedure: (§4) A film-forming lotion was prepared, consisting by weight of 17.5 parts of distilled water, 17.5 parts of ethanol, 20 parts of acetone, 25 parts of polyvinylpyrrolidone VA-S630 and 20 parts of NAC. The control film-forming lotion lacked the NAC.
# (§5) Human nail clippings (n = 2 x 3) were laid on pads soaked in saline, and the two types of film-forming lotion were painted on their dorsal surface twice a day. The weights of the clippings were determined after 3, 4, 5 and 6 days.
# [6] = Penetration of eosine in nail clippings after dorsal application of a film-forming lotion (Example 4); format: in vitro ADME, Human; details: after 6 days of film-forming lotion treatment, then 24 hours in 1% eosine solution without NAC
# Procedure: as §4, §5
# After the above 6 days of treatment, the (2 x 3) clippings were rinsed and placed for 24 hours in a solution of 1% eosine, as described in Example 2 (without NAC), and then further processed for the microscopic estimation of dye penetration as in Example 2. The average penetration of the dye through the NAC-penetrated nails was 48% of the nail thickness, compared to 6% in the controls.
# [7] = Penetration of the hydrophilic dye eosine in nail clippings during immersion in a lotion (Example 2); format: in vitro ADME, Human; details: lotion with 17% NAC and 1% of eosine; immersion 48 hours at room temperature; microscopic freeze sections
# Procedure: (§6) To a similar solution (lotion) as in Example 1, consisting of (v/v) 40% distilled water, 40% of methyl ethyl ketone and 20% of isopropyl alcohol, were added (w/v) 17% of NAC and 1% of eosine.
# (§7) Human nail clippings were immersed in this liquid and in the same liquid without NAC (n = 2 x 3) during 48 hours at room temperature, after which the colour penetration was estimated on microscopic freeze sections.
# [8] = Effect of pretreatment with NAC-containing film-forming lotion on the penetration of oxiconazole in nail discs (Example 7); format: in vitro ADME, Human
# Procedure: A 20% w/v NAC-containing film-forming lotion and a control film-forming lotion were prepared as in Example 4.
# (§8) Human nail discs of 6 mm diameter, resting with their ventral side on pads soaked with saline, were dorsally painted with these film-forming lotions (n = 2 x 3) twice daily during 5 days. Then the six nail discs were rinsed and mounted on pieces of tubing as in Example 6. Subsequently 20 mg of ¹⁴C oxiconazole was added to 30 ml of Oceral® lotion (i.e. 1% oxiconazole in an alcoholic base). Of this, 30 µl was poured into the tubings on top of the dorsal surfaces of the discs as in Example 6. The free (ventral) surfaces of the nail discs were again kept moist on a pad soaked in saline.
# (§9) After 48 hours of incubation at 30°C and 60% relative humidity the discs were sectioned (50 µm) parallel to their dorsal surface, using a freeze-microtome. Radioactivity was measured in the separate sections, after which the amount of penetrated oxiconazole was calculated.
# [9] = Effect of pretreatment with cream on the penetration of oxiconazole in nail discs (Example 8); format: in vitro ADME, Human; details: pretreatment with cream twice daily during 5 days, then Oceral lotion (1% oxiconazole) 48 hours at 30°C, 60% relative humidity
# Procedure: A NAC-containing cream and a control cream were prepared as in Example 5.
# as §8, with “creams” for “film-forming lotions”
# as §9
# [10] = Penetration of eosine in nail clippings after immersion in a lotion (pretreatment, Example 3); format: in vitro ADME, Human; details: pretreatment in NAC lotion lacking eosine, then 24 hours in lotion with 1% eosine lacking NAC
# Procedure: as §6, §7
# The same experimental set-up as in Example 2 was used, except that the nail clippings were first immersed in lotions lacking eosine, and subsequently during 24 hours in lotions containing 1% eosine but lacking NAC. n was again 2 x 3.
smiles,measurement,setting,value
"O[C@H](CS)[C@H](O)CS (relative stereo) [1,4-Dithiothreitol, 1,4-dithiothreitol]","Average amount of oxiconazole (μg), Total",[1],10.02 µg
same,Average % weight increase after immersion during 72 hours,[2],49%
same,Average % weight increase during immersion (hours),"[3]; 20 % w/v in lotion, 1 hour",21%
same,Average % weight increase during immersion (hours),"[3]; 20 % w/v in lotion, 3 hours",32%
same,Average % weight increase during immersion (hours),"[3]; 20 % w/v in lotion, 6 hours",38%
same,Average % weight increase during immersion (hours),"[3]; 20 % w/v in lotion, 24 hours",51%
same,Average % weight increase during immersion (hours),"[3]; 20 % w/v in lotion, 48 hours",50%
same,Average % weight increase during immersion (hours),"[3]; 20 % w/v in lotion, 72 hours",58%
"O=C(O)CS [Ammonium thioglycolate, ammonium thioglycolate]","Average amount of oxiconazole (μg), Total",[1],2.34 µg
same,Average % weight increase after immersion during 72 hours,[2],52%
"N[C@@H](CCC(=O)N[C@@H](CS)C(=O)NCC(=O)O)C(=O)O [Glutathione, glutathione]",Average % weight increase during immersion (hours),"[3]; 10 % w/v in distilled water, 1 hour",30%
same,Average % weight increase during immersion (hours),"[3]; 10 % w/v in distilled water, 3 hours",32%
same,Average % weight increase during immersion (hours),"[3]; 10 % w/v in distilled water, 6 hours",33%
same,Average % weight increase during immersion (hours),"[3]; 10 % w/v in distilled water, 24 hours",44%
same,Average % weight increase during immersion (hours),"[3]; 10 % w/v in distilled water, 48 hours",58%
same,Average % weight increase during immersion (hours),"[3]; 10 % w/v in distilled water, 72 hours",61%
"NCCS [Mercaptoethyl-amine, mercaptoethylamine]",Average % weight increase during immersion (hours),"[3]; 20 % w/v in lotion, 1 hour",10%
same,Average % weight increase during immersion (hours),"[3]; 20 % w/v in lotion, 3 hours",16%
same,Average % weight increase during immersion (hours),"[3]; 20 % w/v in lotion, 6 hours",21%
same,Average % weight increase during immersion (hours),"[3]; 20 % w/v in lotion, 24 hours",38%
same,Average % weight increase during immersion (hours),"[3]; 20 % w/v in lotion, 48 hours",55%
same,Average % weight increase during immersion (hours),"[3]; 20 % w/v in lotion, 72 hours",64%
"CC(=O)N[C@@H](CS)C(=O)O [NAC, N-acetyl-cysteine]",average total uptake of oxiconazole (expressed as a % of the total amount of oxiconazole applied),[4],4.94%
same,"Average amount of oxiconazole (μg), Total",[1],15.17 µg
same,weight increase of clippings,[5],34%
same,"average penetration of the dye, % of the nail thickness",[6],48%
same,"average penetration of the dye, % of the total nail thickness",[7],27.5%
same,Average % weight increase after immersion during 72 hours,[2],72%
same,average radioactivity in the three pads under the discs,"[8]; pretreatment with film-forming lotion 5 days, then 14C oxiconazole in Oceral lotion 48 hours",7.53%
same,average total uptake of oxiconazole (expressed as a % of the total amount of oxiconazole applied),"[8]; pretreatment with film-forming lotion twice daily during 5 days, then Oceral lotion (1% oxiconazole) 48 hours at 30°C, 60% relative humidity",3.25%
same,average total uptake of oxiconazole (expressed as a % of the total amount of oxiconazole applied),[9],4.0%
same,Average % weight increase during immersion (hours),"[3]; 5 % w/v in lotion, 1 hour",23%
same,Average % weight increase during immersion (hours),"[3]; 5 % w/v in lotion, 3 hours",32%
same,Average % weight increase during immersion (hours),"[3]; 5 % w/v in lotion, 6 hours",38%
same,Average % weight increase during immersion (hours),"[3]; 5 % w/v in lotion, 24 hours",47%
same,Average % weight increase during immersion (hours),"[3]; 5 % w/v in lotion, 48 hours",60%
same,Average % weight increase during immersion (hours),"[3]; 5 % w/v in lotion, 72 hours",70%
same,Average % weight increase during immersion (hours),"[3]; 10 % w/v in lotion, 1 hour",24%
same,Average % weight increase during immersion (hours),"[3]; 10 % w/v in lotion, 3 hours",33%
same,Average % weight increase during immersion (hours),"[3]; 10 % w/v in lotion, 6 hours",38%
same,Average % weight increase during immersion (hours),"[3]; 10 % w/v in lotion, 24 hours",59%
same,Average % weight increase during immersion (hours),"[3]; 10 % w/v in lotion, 48 hours",67%
same,Average % weight increase during immersion (hours),"[3]; 10 % w/v in lotion, 72 hours",79%
same,Average % weight increase during immersion (hours),"[3]; 20 % w/v in lotion, 1 hour",23%
same,Average % weight increase during immersion (hours),"[3]; 20 % w/v in lotion, 3 hours",30%
same,Average % weight increase during immersion (hours),"[3]; 20 % w/v in lotion, 6 hours",37%
same,Average % weight increase during immersion (hours),"[3]; 20 % w/v in lotion, 24 hours",60%
same,Average % weight increase during immersion (hours),"[3]; 20 % w/v in lotion, 48 hours",91%
same,Average % weight increase during immersion (hours),"[3]; 20 % w/v in lotion, 72 hours",110%
same,Average % weight increase during immersion (hours),"[3]; 40 % w/v in lotion, 1 hour",24%
same,Average % weight increase during immersion (hours),"[3]; 40 % w/v in lotion, 3 hours",33%
same,Average % weight increase during immersion (hours),"[3]; 40 % w/v in lotion, 6 hours",38%
same,Average % weight increase during immersion (hours),"[3]; 40 % w/v in lotion, 24 hours",71%
same,Average % weight increase during immersion (hours),"[3]; 40 % w/v in lotion, 48 hours",110%
same,Average % weight increase during immersion (hours),"[3]; 40 % w/v in lotion, 72 hours",154%
same,average penetration of the dye,[10],19%
O=C(O)c1ccccc1O [Salicylic acid],Average % weight increase during immersion (hours),"[3]; 14 % w/v in lotion (water/methyl ethyl ketone/isopropyl alcohol), 1 hour, ambient temperature",17%
same,Average % weight increase during immersion (hours),"[3]; 14 % w/v in lotion, 3 hours",24%
same,Average % weight increase during immersion (hours),"[3]; 14 % w/v in lotion, 6 hours",26%
same,Average % weight increase during immersion (hours),"[3]; 14 % w/v in lotion, 24 hours",29%
same,Average % weight increase during immersion (hours),"[3]; 14 % w/v in lotion, 48 hours",30%
same,Average % weight increase during immersion (hours),"[3]; 14 % w/v in lotion, 72 hours",30%
"NC(N)=O [Urea, urea]",Average % weight increase during immersion (hours),"[3]; 50 % w/v in distilled water, 1 hour",22%
same,Average % weight increase during immersion (hours),"[3]; 50 % w/v in distilled water, 3 hours",24%
same,Average % weight increase during immersion (hours),"[3]; 50 % w/v in distilled water, 6 hours",32%
same,Average % weight increase during immersion (hours),"[3]; 50 % w/v in distilled water, 24 hours",35%
same,Average % weight increase during immersion (hours),"[3]; 50 % w/v in distilled water, 48 hours",36%
same,Average % weight increase during immersion (hours),"[3]; 50 % w/v in distilled water, 72 hours",37%
